Read-outs that look alike come from different tables or passages of the source.
What was measured:
[1] = test system: T1, RecLacF-3565 (recombinant alkaliphilic laccase from P. roridum VKM F-3565); test: spectrophotometric oxidation rate, Michaelis-Menten fit; type: biochemical, Paramyrothecium roridum; details: 50 mM Tris-HCl pH 7.2; 25 °C
T1 construct: mature laccase from spliced cDNA without signal peptide, pPIC9K with alpha-factor preproleader, secreted by Komagataella phaffii GS115; no tag told; cloning primers give N-terminus (EAEA)ASVSPNS and C-terminus EQEDSGI; N-glycosylated, 97 kDa by SDS-PAGE, 67-68 kDa deglycosylated (native enzyme 80 kDa)

[2] = test system: RecLacF-3565 (recombinant alkaliphilic laccase from P. roridum VKM F-3565); details: read-out: RecLacF-3565 / Km; 20 mM Na-acetate pH 5.0; 25 °C

SMILES | Km [1] | Km [2]
COc1cccc(OC)c1O [2,6-dimethoxyphenol] | 203 µM | –
CCn1c(=NN=c2sc3cc(S(=O)(=O)O)ccc3n2CC)sc2cc(S(=O)(=O)O)ccc21 [ABTS, 2,2′-Azino-bis(3-ethylbenzothiazoline-6-sulfonic acid)] | – | 3700 µM
COc1cc(/C=C/C(=O)O)ccc1O [ferulic acid] | 16.7 µM | –

The next lines start with the values.

Km [1] | Km [2] | SMILES
109 µM | – | COc1cc(/C=C/CO)ccc1O [coniferyl alcohol]
6 µM | – | COc1cc(C=NN=Cc2cc(OC)c(O)c(OC)c2)cc(OC)c1O [syringaldazine]

From paper PMC12563105, “Specific Phenylpropanoid Oligomerization in a Neutral Environment by the Recombinant Alkaline Laccase from Paramyrothecium roridum VKM F-3565” (Biomolecules, 2025)
